Assay results published in patent US8741879B2, “Petroleum jelly-free unguent compositions comprising vitamin D compounds and optionally steroidal anti-inflammatory agents” (Galderma S.A., priority 2006, dated 2014).

What was measured:
[1] = Stability of calcitriol 30 ppm solution in absolute ethanol with 0.02% BHT (HPLC assay against a reference substance); format: physicochemical; details: 30 ppm in absolute ethanol
Excerpt: b) Stability of Calcitriol in Ethanol: Calcitriol solution 30 ppm in qs 100% absolute ethanol in the presence of 0.02% BHT. Assay technique by HPLC against a reference substance. The starting time (T0) is considered to be 100%.

[2] = Solubility of clobetasol propionate in solvents (HPLC); format: physicochemical
Excerpt: a) Solubility of Clobetasol Propionate:

Row | Calcitriol remaining (T0 = 100%) ([1]; +4° C., T1week) [%] | Calcitriol remaining (T0 = 100%) ([1]; +4° C., T2weeks) [%] | Calcitriol remaining (T0 = 100%) ([1]; +4° C., T3weeks) [%] | Calcitriol remaining (T0 = 100%) ([1]; +4° C., T4weeks) [%] | Calcitriol remaining (T0 = 100%) ([1]; +30° C., T2weeks) [%] | Calcitriol remaining (T0 = 100%) ([1]; +30° C., T4weeks) [%] | Calcitriol remaining (T0 = 100%) ([1]; −18° C., T1week) [%] | Calcitriol remaining (T0 = 100%) ([1]; −18° C., T2weeks) [%] | Calcitriol remaining (T0 = 100%) ([1]; −18° C., T3weeks) [%] | Calcitriol remaining (T0 = 100%) ([1]; −18° C., T4weeks) [%] | Solubility ([2]; in Ethanol 96) [mg/g] | Solubility ([2]; in Propylene glycol) [mg/g] | Solubility ([2]; in Transcutol) [mg/g] | Structure (SMILES)
1 | 97.7 | 98.6 | 98.1 | 97.7 | 93.4 | 93.0 | 100.9 | 100.5 | 99.5 | 99.5 |  |  |  | C=C1/C(=C\C=C2/CCC[C@]3(C)[C@@H]([C@H](C)CCCC(C)(C)O)CC[C@@H]23)C[C@@H](O)C[C@@H]1O [Calcitriol, calcitriol]
2 |  |  |  |  |  |  |  |  |  |  | 50.40 | 9.10 | 120.70 | CCC(=O)O[C@]1(C(=O)CCl)[C@@H](C)C[C@H]2[C@@H]3CCC4=CC(=O)C=C[C@]4(C)[C@@]3(F)[C@@H](O)C[C@@]21C [Clobetasol Propionate, clobetasol 17-propionate]
